For series [1] the following is noted: irinotecan 125 mg/m^2 weekly×4, Q6W; cited from earlier work.
For series [2], the system named is patients with diverse metastatic cancers. As to the kind of experiment: Phase I / phase II extension clinical trial of IMMU-132: best response, time to progression, case reports. Format: in vivo, human.
Method: In a 3+3 trial design, IMMU-132 was given on days 1 and 8 in repeated 21-day cycles, starting at 8 mg/kg/dose, then 12 and 18 mg/kg before dose-limiting neutropenia. To optimize cumulative treatment with minimal delays, phase II is focusing on 8 and 10 mg/kg (n=30 and 14, respectively). […] In the Phase I and the expansion phases, there are now 48 pts (excluding PDC) who are assessable by RECIST/CT for best response.
A total of 69 patients (including 25 patients in Phase I) with diverse metastatic cancers having a median of 3 prior therapies were reported. Eight patients had clinical progression and withdrew before CT assessment. Thirteen CT-assessable pancreatic cancer patients were separately reported.
A total of 48 patients with diverse cancers had at least 1 CT-assessment from which Best Response (not shown) and Time to Progression (TTP; not shown) were determined.
Series [3] is described as follows: Phase I/II clinical trial of IMMU-132: related adverse events and dose reductions. The series is classed as in vivo, human.
Series [4] can be described thus: Clinical pharmacokinetics of IMMU-132 in serum (ELISA, HPLC of SN-38). Format: in vivo, human. The procedure:
Two ELISA methods were used to measure the clearance of the IgG (capture with anti-hRS7 idiotype antibody) and the intact conjugate (capture with anti-SN-38 IgG/probe with anti-hRS7 idiotype antibody). SN-38 was measured by HPLC.

The subject of series [5] is Capan-1 human pancreatic tumor xenografts. Briefly: SN-38 delivery to tumor in nude mice bearing Capan-1 xenografts. The series is classed as in vivo. An excerpt: The present Example reports results from a phase I clinical trial and ongoing phase II extension with IMMU-132 (sacituzumab govitecan), an antibody-drug conjugate (ADC) of the internalizing, humanized, hRS7 anti-Trop-2 antibody conjugated by a pH-sensitive linker to SN-38 (mean drug-antibody ratio=7.6). Trop-2 is a type I transmembrane, calcium-transducing, protein expressed at high density (˜1×10^5), frequency, and specificity by many human carcinomas, with limited normal tissue expression.

Series [6] is described as follows: In vivo animal studies of SN-38 release from conjugate.
In series [7] the test system is stage IIIB NSCLC (squamous cell carcinoma). Briefly: Example 10: treatment of NSCLC patient after detection of Trop-2+ CTCs. The series is classed as in vivo, human. As to conditions: person. As to the method: A […]® system and Circulating Tumor Cell Kit are obtained Veridex LLC (Raritan, N.J.). A 7.5 ml blood sample is collected from a person with suspected NSCLC and stored in a CellSave tube (Veridex LLC). The anti-Trop-2 hRS7 antibody is substituted for the anti-EpCAM antibody provided with the […]® kit. The blood sample is mixed with magnetic nanoparticles conjugated to anti-Trop-2 antibody. Cells are stained with fluorescently labeled anti-CD45 and anti-CK antibodies and cell nuclei are fluorescently labeled with DAPI nuclear dye. A strong magnetic field is generated in the […]® system and used to separate cells bound to the magnetic nanoparticles, which are then analyzed by FISH to determine Trop-2 copy number, as described in Example 7 above.
Initial treatment of caboplatin/etoposide (3 mo) in concert with 7000 cGy XRT results in a response lasting 10 mo. The patient is then started on Tarceva maintenance therapy, which they continue until they were considered for IMMU-132 (hRS7-CL2A-SN-38) trial, in addition to undergoing a lumbar laminectomy. They receive the first dose of IMMU-132 after 5 months of Tarceva, presenting at the time with a 5.6-cm lesion in the right lung with abundant pleural effusion.

The conditions of series [8]: human, in vivo.
In series [9] the target is DDD of the RII form of PKA (Homo sapiens, UniProt P13861). As to conditions: Alto et al. 2003; read-out: binding constant for DDD; cited from earlier work.
Sequence of DDD of the RII form of PKA (P13861 2-45 limits assumed): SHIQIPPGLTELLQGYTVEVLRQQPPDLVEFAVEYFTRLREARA
The next series deals with RII isoform of PKA (Homo sapiens, UniProt P13861). As to conditions: Gold et al. 2006; cited from earlier work.
Sequence of RII isoform of PKA (P13861 whole entry, canonical isoform): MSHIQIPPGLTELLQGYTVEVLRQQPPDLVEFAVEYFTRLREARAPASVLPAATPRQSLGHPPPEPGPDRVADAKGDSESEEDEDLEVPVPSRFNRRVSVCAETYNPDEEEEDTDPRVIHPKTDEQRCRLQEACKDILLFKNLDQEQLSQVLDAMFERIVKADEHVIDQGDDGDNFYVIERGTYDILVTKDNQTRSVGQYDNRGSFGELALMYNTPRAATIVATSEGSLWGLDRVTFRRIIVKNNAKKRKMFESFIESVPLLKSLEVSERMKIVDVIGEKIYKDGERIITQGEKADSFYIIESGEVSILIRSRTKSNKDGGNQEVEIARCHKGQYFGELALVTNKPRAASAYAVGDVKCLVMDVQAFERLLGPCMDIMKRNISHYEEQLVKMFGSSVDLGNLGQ
The mark [10] stands for this setting: 48 pts (excluding PDC) assessable by RECIST/CT.
[11] abbreviates: all patients treated, 48 assessable.
The mark [12] stands for this setting: esophageal cancer, 4 assessable patients.
The mark [13] stands for this setting: starting dose 8 or 10 mg/kg, N = 123 patients.

Values joined by “and” are separate entries in the source; they are usually repeats but may differ in a detail not shown here. Equal entries are not always repeated.

With `CCc1c2c(nc3ccc(OC(=O)N4CCC(N5CCCCC5)CC4)cc13)-c1cc3c(c(=O)n1C2)COC(=O)[C@]3(O)CC` [irinotecan], in series [1], the “incidence of grade ¾ diarrhea” value was 38%, the incidence of neutropenia is 31% and the “incidence of neutropenic fever/infection” value is 8%.
For the molecule `CC[C@@]1(O)C(=O)OCc2c1cc1n(c2=O)Cc2cc3c(CN(C)C)c(O)ccc3nc2-1` [topotecan, reference compound], the “response to prior therapy” value in [2] (person with SCLC, therapy ended after 2 months) was “no response”.
Regarding IMMU-132, the “PDC patients with SD” value in [2] (13 CT-assessable PDC pts) was found to be 62%. In addition, the “median time to progression (TTP) in PDC patients” value in series [2] (13 CT-assessable pancreatic cancer patients, 8 wks in last prior therapy) was 12.7 wks and 11.9 wks. Further, the “patients with disease response (total)” value in [2] (setting [10]) was 79%. Also, in series [2] (setting [10]), the “patients with partial response (PR)” value is 15%. Further, the “TTP for the remaining 48 pts” value in series [2] (48 pts excluding PDC) is at least 12.6 wks. Also, the “total response [PR+SD]” value turned out to be 67% in [2] (CRC, 12/18); 80% in series [2] (NSCLC, ⅘); 50% in series [2] (SCLC, 2/4); 75% in [2] (TNBC, 6/8); 71% in series [2] (all patients treated, 34/48); 75% in series [2] (esophageal cancer, ¾). The PD came out at 6 patients in series [2] (CRC, 18 assessable patients); 1 patients in series [2] (NSCLC, 5 assessable patients); 2 patients in series [2] (SCLC, 4 assessable patients); 14 patients in series [2] (setting [11]); 1 patients in series [2] (setting [12]). In addition, the PR in [2] (CRC, 18 assessable patients) was found to be 1 patients; in [2] (NSCLC, 5 assessable patients), 1 patients; in series [2] (SCLC, 4 assessable patients), 2 patients; in series [2] (setting [11]), 7 patients; in series [2] (setting [12]), 1 patients. The “clinical benefit ratio (CR+PR+(SD≧4 mo)])” value is given as 44% in series [2] (EAC, 16 assessable patients); 59% in series [2] (NSCLC, 19 assessable patients); 55% in series [2] (SCLC, 20 assessable patients); 63% in series [2] (TNBC, 46 assessable patients). Further, the objective response in series [2] (EAC, 16 assessable patients (2 patients)) is given as 13%; in series [2] (NSCLC, 19 assessable patients (6 patients)) it was 32%; in series [2] (SCLC, 20 assessable patients (6 patients)) it was 30%; in [2] (TNBC, 46 assessable patients (12 patients)) it was 26%. In addition, the disease control worked out at 56% in [2] (EAC, 16 assessable patients (9 patients)); 74% in series [2] (NSCLC, 19 assessable patients (14 patients)); 55% in [2] (SCLC, 20 assessable patients (11 patients)); 74% in series [2] (TNBC, 46 assessable patients (34 patients)). Moreover, the “clinical benefit ratio (CR+PR+(SD≧6 mo)])” value in [2] (SCLC, 20 assessable patients) worked out at 37%; in series [2] (TNBC, 46 assessable patients), 46%. Besides, the “PD (progressive disease)” value in [2] (TNBC, 8 assessable patients) is given as 2 patients. Moreover, the “PR (partial response)” value in series [2] (TNBC, 8 assessable patients) is 2 patients. For the same molecule, in series [2] (person with CRC, after 10 months of treatment), the “maximum reduction in target lesions” value was 65%. In series [2] (person with CRC, decrease from 781 ng/mL), this molecule yielded a CEA after treatment of 26.5 ng/mL. Also, the “reduction in target lesions at first CT assessment” value in series [2] (person with CRC, starting dose 8 mg/kg) is given as 37%. The “reduction in target lesions” value in [2] (person with SCLC, 12 mg/kg reduced to 6.8 mg/kg, after two months) was 38%. For the same molecule, the “primary target lesion size at first CT” value in [2] (person, stage IIIB NSCLC, after 6th dose, 5.6 cm lesion at start) came out at 3.2 cm; in series [7] (stage IIIB NSCLC, after 6th dose, 5.6-cm lesion at start), 3.2 cm. This molecule yielded an alopecia in series [3] (human, in vivo) of 40%. Further, the diarrhea in series [3] (human, in vivo) is listed as 47%. In addition, the “diarrhea ≧G3” value in series [3] (human, in vivo) is reported as 9%. The molecule further showed a fatigue in series [3] (human, in vivo) of 55%. In [3] (human, in vivo), the “fatigue ≧G3” value came to 9%. Further, in series [3] (human, in vivo), the nausea came to 53%. The “nausea ≧G3” value in series [3] (human, in vivo) is listed as 0%. Also, in series [3] (human, in vivo), the “neutropenia G4” value amounted to 4%. In addition, the “neutropenia ≧G3” value in [3] (human, in vivo) came to 28%. Also, in series [3] (human, in vivo), the vomiting is 32%. Besides, the “vomiting ≧G3” value in [3] (human, in vivo) was 2%. Further, the “patients provided with a dose reduction” value in series [3] (human, in vivo, 8 mg/kg) is 16%; in series [3] (human, in vivo, 10 mg/kg), 15%; in series [3] (human, in vivo, 12 mg/kg), 67%; in series [3] (human, in vivo, 18 mg/kg), 100%. For the same molecule, the “Urinary Tract Infection, Grade 3” value in series [3] (setting [13]) is recorded as 1 (1%) patients (%). In addition, in [3] (setting [13]), the “Urinary Tract Infection, Grade 4” value was 0 patients (%). Further, in [4] (ELISA), the “clearance of total IMMU-132 fraction (intact conjugate) vs IgG” value was “cleared more quickly than the IgG”. Besides, the “SN-38 in the serum bound to the IgG” value in series [4] (HPLC, unbound and total SN-38, non-glucoronidated form) is on record as over 95%. In addition, in [4] (human, in vivo), the “serum SN-38 concentration relative to SN-38 reported in patients given irinotecan” value is at most 100 fold. The “time for conjugate to clear from the serum” value in series [4] (patients) is given as at most 3 days. Also, the “concentrations of SN-38G” value in series [4] (serum, HPLC) was “Low concentrations”. Also, the “SN-38 delivered to tumor relative to maximally tolerated irinotecan therapy” value in [5] is listed as at most 136 fold. Further, in series [6], the SN-38 released daily was found to be 50%. Also, the “Trop-2+ CTC number following treatment” value in series [7] (NSCLC, periodic assays) is recorded as “substantial reduction”. For the same molecule, the “anti-hRS7 or anti-SN-38 antibodies” value in [8] was “No anti-hRS7 or anti-SN-38 antibodies were detected”. Further, in series [8], the “antibody response to IMMU-132” value is reported as “no evidence of an antibody response”.
In the case of QIEYLAKQIVDNAIQQA [AKAP-IS], the Kd in series [9] is 400 pM.
On to QIEYVAKQIVDYAIHQA [SuperAKAP-IS], for which the “selectivity for the RII isoform of PKA compared with the RI isoform” value with RII isoform of PKA is “five order of magnitude higher selectivity”.

Source of the values: patent US9797907B2, “Isolation, detection, diagnosis and/or characterization of circulating Trop-2-positive cancer cells” (Immunomedics, Inc., priority 2015, dated 2017).
